From patent publication US11066369B2, “N-(pyridin-2-yl)pyridine-sulfonamide derivatives and their use in the treatment of disease” (Novartis AG, priority 2016, dated 2021)

Biological target: T1, horseradish peroxidase (HRP) tagged delF508-CFTR (Homo sapiens, UniProt P13569, DEL508-508)
T1 construct: expressed in transfected cells
Experiment: Measurement of delF508-CFTR-HRP surface expression in CFBE41o- cells;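 as to DelF508-CFTR-HRP Amax %: percent efficacy relative to reference corrector lumacaftor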
Type: cell-based
Settings: CFBE41o- cells; for EC50: mean of at least two replicates, read-out: DelF508-CFTR-HRP EC50; for Emax: surface expression Amax, read-out: DelF508-CFTR-HRP Amax %
Outline: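 CFBE41o- bronchial epithelial cells stably expressing delF508-CFTR with HRP in the fourth extracellular loop; expression induced 48h with 500 ng/mL doxycycline, then compounds added (top 10 μM, 10-point 3-fold series, ≤0.5% DMSO) for 24h at 37° C. Surface HRP measured by luminescence with cell-impermeant substrate; EC50 from logistic fit of triplicates, plate-normalized to lowest concentration; efficacy also relative to a reference corrector.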

T1 sequence (P13569 with tags, fused parts or gaps DEL508-508): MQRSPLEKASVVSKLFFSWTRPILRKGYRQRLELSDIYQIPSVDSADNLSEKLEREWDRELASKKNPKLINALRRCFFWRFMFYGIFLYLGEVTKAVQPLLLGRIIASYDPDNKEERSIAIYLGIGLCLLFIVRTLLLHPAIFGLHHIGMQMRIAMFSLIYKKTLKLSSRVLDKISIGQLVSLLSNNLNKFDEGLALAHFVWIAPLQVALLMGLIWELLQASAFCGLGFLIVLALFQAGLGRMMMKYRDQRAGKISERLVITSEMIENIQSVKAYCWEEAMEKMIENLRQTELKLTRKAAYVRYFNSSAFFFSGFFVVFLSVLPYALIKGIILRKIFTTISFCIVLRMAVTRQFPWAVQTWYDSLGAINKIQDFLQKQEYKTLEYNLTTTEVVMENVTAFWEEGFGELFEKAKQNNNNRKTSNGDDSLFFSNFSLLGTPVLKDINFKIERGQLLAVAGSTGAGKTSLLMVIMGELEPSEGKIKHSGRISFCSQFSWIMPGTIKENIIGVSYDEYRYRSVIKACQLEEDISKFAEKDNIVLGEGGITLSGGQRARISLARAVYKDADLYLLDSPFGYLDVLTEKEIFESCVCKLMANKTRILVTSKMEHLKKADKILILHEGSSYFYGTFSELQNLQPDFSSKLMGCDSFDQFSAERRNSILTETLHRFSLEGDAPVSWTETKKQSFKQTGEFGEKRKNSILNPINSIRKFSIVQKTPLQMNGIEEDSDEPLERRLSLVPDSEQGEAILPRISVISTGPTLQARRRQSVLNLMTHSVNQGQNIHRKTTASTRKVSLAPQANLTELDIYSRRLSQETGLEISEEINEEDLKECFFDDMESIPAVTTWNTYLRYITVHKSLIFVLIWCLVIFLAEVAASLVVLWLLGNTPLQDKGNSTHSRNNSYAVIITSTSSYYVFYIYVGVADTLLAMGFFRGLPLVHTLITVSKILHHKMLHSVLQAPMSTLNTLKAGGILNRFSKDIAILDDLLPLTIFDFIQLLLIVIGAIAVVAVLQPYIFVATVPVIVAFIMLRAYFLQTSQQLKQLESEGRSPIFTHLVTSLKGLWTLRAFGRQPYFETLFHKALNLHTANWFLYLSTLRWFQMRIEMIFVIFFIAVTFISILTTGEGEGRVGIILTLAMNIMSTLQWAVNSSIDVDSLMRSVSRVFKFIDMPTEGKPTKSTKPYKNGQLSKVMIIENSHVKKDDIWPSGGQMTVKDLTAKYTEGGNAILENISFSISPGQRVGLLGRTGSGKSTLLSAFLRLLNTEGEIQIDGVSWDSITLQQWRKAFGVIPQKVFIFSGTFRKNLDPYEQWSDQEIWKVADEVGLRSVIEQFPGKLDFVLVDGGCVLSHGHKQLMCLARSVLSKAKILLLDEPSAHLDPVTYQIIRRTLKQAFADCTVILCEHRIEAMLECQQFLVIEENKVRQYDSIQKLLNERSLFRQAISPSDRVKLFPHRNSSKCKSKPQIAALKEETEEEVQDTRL

Row | SMILES | EC50 [nM] | Emax [%]
1 | CC(C)COc1ccccc1-c1nc(NS(=O)(=O)c2cccc(N3CCC[C@@](C)(C(=O)O)C3)n2)ccc1C(F)(F)F [Example 396, (R)-1-(6-(N-(6-(2-isobutoxyphenyl)-5-(trifluoromethyl)pyridin-2-yl)sulfamoyl)pyridin-2-yl)-3-methylpiperidine-3-carboxylic Acid] | 845 | –
2 | CC(C)COc1ccccc1-c1nc(NS(=O)(=O)c2cccc(N3CCC(C)(C(=O)O)CC3)n2)ccc1Cl [Example 397, 1-(6-(N-(5-chloro-6-(2-isobutoxyphenyl)pyridin-2-yl)sulfamoyl)pyridin-2-yl)-4-methylpiperidine-4-carboxylic Acid] | 1280 | 303
3 | CCCc1ccccc1-c1nc(NS(=O)(=O)c2cccc(N3CCC(C)(C(=O)O)CC3)n2)ccc1C(F)(F)F [Example 398, 4-methyl-1-(6-(N-(6-(2-propylphenyl)-5-(trifluoromethyl)pyridin-2-yl)sulfamoyl)pyridin-2-yl)piperidine-4-carboxylic Acid] | 615 | 711
4 | CC1(C(=O)O)CCCN(c2cccc(S(=O)(=O)Nc3ccc(C(F)(F)F)c(-c4ccccc4Cl)n3)n2)C1 (stereo not shown) [Example 399, 1-(6-(N-(6-(2-chlorophenyl)-5-(trifluoromethyl)pyridin-2-yl)sulfamoyl)pyridin-2-yl)-3-methylpiperidine-3-carboxylic Acid] | 2090 | 728
5 | CC(C)COc1ccccc1-c1nc(NS(=O)(=O)c2cccc(N3CCCC(C)(C(=O)O)C3)n2)ccc1Cl (stereo not shown) [Example 400, 1-(6-(N-(5-chloro-6-(2-isobutoxyphenyl)pyridin-2-yl)sulfamoyl)pyridin-2-yl)-3-methylpiperidine-3-carboxylic Acid] | 1100 | 672
6 | CC1(C(=O)O)CCCN(c2cccc(S(=O)(=O)Nc3ccc(C(F)(F)F)c(-c4ccccc4C4CC4)n3)n2)C1 (stereo not shown) [Example 402, 1-(6-(N-(6-(2-cyclopropylphenyl)-5-(trifluoromethyl)pyridin-2-yl)sulfamoyl)pyridin-2-yl)-3-methylpiperidine-3-carboxylic Acid] | 778 | 729
7 | C[C@@]1(C(=O)O)CCCN(c2cccc(S(=O)(=O)Nc3cccc(-c4ccccc4C4CC4)n3)n2)C1 [Example 405, (R)-1-(6-(N-(6-(2-cyclopropylphenyl)pyridin-2-yl)sulfamoyl)pyridin-2-yl)-3-methylpiperidine-3-carboxylic Acid] | 2480 | 235
8 | COc1ccc(NS(=O)(=O)c2cccc(N3CCC[C@@](C)(C(=O)O)C3)n2)nc1-c1ccccc1C1CC1 [Example 408, (R)-1-(6-(N-(6-(2-cyclopropylphenyl)-5-methoxypyridin-2-yl)sulfamoyl)pyridin-2-yl)-3-methylpiperidine-3-carboxylic Acid] | 1990 | 271
9 | COc1ccc(NS(=O)(=O)c2cccc(N3CCC[C@@](C)(C(=O)O)C3)n2)nc1-c1ccccc1C [Example 410, (R)-1-(6-(N-(5-methoxy-6-(o-tolyl)pyridin-2-yl)sulfamoyl)pyridin-2-yl)-3-methylpiperidine-3-carboxylic Acid] | 1920 | 210
10 | C[C@@]1(C(=O)O)CCCN(c2cccc(S(=O)(=O)Nc3ccc(C(F)(F)F)c(-c4ccccc4C4CC4)n3)n2)C1 [Example 413, (R)-1-(6-(N-(6-(2-cyclopropylphenyl)-5-(trifluoromethyl)pyridin-2-yl)sulfamoyl)pyridin-2-yl)-3-methylpiperidine-3-carboxylic Acid] | 576 | 906
11 | CC(C)c1ccccc1-c1nc(NS(=O)(=O)c2cccc(N[C@H]3CCC[C@H](C(=O)O)C3)n2)ccc1C(F)(F)F [Example 418, (1S,3S)-3-((6-(N-(6-(2-isopropylphenyl)-5-(trifluoromethyl)pyridin-2-yl)sulfamoyl)pyridin-2-yl)amino)cyclohexanecarboxylic Acid] | 1220 | 644
12 | O=C(O)C1CC12CCN(c1cccc(S(=O)(=O)Nc3ccc(C(F)(F)F)c(-c4ccccc4C4CC4)n3)n1)C2 (stereo not shown) [Example 420, 5-(6-(N-(6-(2-cyclopropylphenyl)-5-(trifluoromethyl)pyridin-2-yl)sulfamoyl)pyridin-2-yl)-5-azaspiro[2.4]heptane-1-carboxylic Acid] | 1920 | 705
13 | CC(C)COc1ccccc1-c1nc(NS(=O)(=O)c2cccc(N3CCC[C@@](C)(C(=O)O)C3)n2)ccc1Cl [Example 422, (R)-1-(6-(N-(5-chloro-6-(2-isobutoxyphenyl)pyridin-2-yl)sulfamoyl)pyridin-2-yl)-3-methylpiperidine-3-carboxylic Acid] | 1380 | 905
14 | COc1ccc(Cl)c(-c2nc(NS(=O)(=O)c3cccc(N4CCC[C@@](C)(C(=O)O)C4)n3)ccc2C(F)(F)F)c1 [Example 424, (R)-1-(6-(N-(6-(2-chloro-5-methoxyphenyl)-5-(trifluoromethyl)pyridin-2-yl)sulfamoyl)pyridin-2-yl)-3-methylpiperidine-3-carboxylic Acid] | 2020 | –

More lines, in order of falling EC50, values ahead:

Row | EC50 [nM] | Emax [%] | SMILES
15 | 2390 | 644 | Cc1ccccc1-c1nc(NS(=O)(=O)c2cccc(N3CCC4(CC4C(=O)O)C3)n2)ccc1C(F)(F)F (stereo not shown) [Example 419, 5-(6-(N-(6-(o-tolyl)-5-(trifluoromethyl)pyridin-2-yl)sulfamoyl)pyridin-2-yl)-5-azaspiro[2.4]heptane-1-carboxylic Acid]
16 | 2040 | – | C[C@@]1(C(=O)O)CCCN(c2cccc(S(=O)(=O)Nc3ccc(C(F)(F)F)c(-c4ccccc4Cl)n3)n2)C1 [Example 421, (R)-1-(6-(N-(6-(2-chlorophenyl)-5-(trifluoromethyl)pyridin-2-yl)sulfamoyl)pyridin-2-yl)-3-methylpiperidine-3-carboxylic Acid]
17 | 1900 | – | Cc1ccc(F)cc1-c1nc(NS(=O)(=O)c2cccc(N3CCC[C@@](C)(C(=O)O)C3)n2)ccc1C(F)(F)F [Example 416, (3R)-1-(6-{[6-(5-fluoro-2-methylphenyl)-5-(trifluoromethyl)pyridin-2-yl]sulfamoyl}pyridin-2-yl)-3-methylpiperidine-3-carboxylic Acid]
18 | 1890 | 684 | COc1ccc(Cl)c(-c2nc(NS(=O)(=O)c3cccc(N4CCCC(C)(C(=O)O)C4)n3)ccc2C(F)(F)F)c1 (stereo not shown) [Example 414, 1-(6-(N-(6-(2-chloro-5-methoxyphenyl)-5-(trifluoromethyl)pyridin-2-yl)sulfamoyl)pyridin-2-yl)-3-methylpiperidine-3-carboxylic Acid]
19 | 1890 | 221 | Cc1ccccc1-c1cccc(NS(=O)(=O)c2cccc(N3CCC[C@@](C)(C(=O)O)C3)n2)n1 [Example 412, (R)-3-methyl-1-(6-(N-(6-(o-tolyl)pyridin-2-yl)sulfamoyl)pyridin-2-yl)piperidine-3-carboxylic Acid]
20 | 1880 | – | Cc1c(F)cccc1-c1nc(NS(=O)(=O)c2cccc(N3CCC[C@@](C)(C(=O)O)C3)n2)ccc1C(F)(F)F [Example 417, (3R)-1-(6-{[6-(3-fluoro-2-methylphenyl)-5-(trifluoromethyl)pyridin-2-yl]sulfamoyl}pyridin-2-yl)-3-methylpiperidine-3-carboxylic Acid]
21 | 1770 | – | Cc1ccccc1-c1nc(NS(=O)(=O)c2cccc(N3CCC[C@@](C)(C(=O)O)C3)n2)ccc1C(F)(F)F [Example 415, (3R)-3-methyl-1-(6-{[6-(2-methylphenyl)-5-(trifluoromethyl)pyridin-2-yl]sulfamoyl}pyridin-2-yl)piperidine-3-carboxylic Acid]
22 | 1670 | 330 | Cc1ccccc1-c1nc(NS(=O)(=O)c2cccc(N3CCC[C@@](C)(C(=O)O)C3)n2)ccc1C [Example 409, (R)-3-methyl-1-(6-(N-(5-methyl-6-(o-tolyl)pyridin-2-yl)sulfamoyl)pyridin-2-yl)piperidine-3-carboxylic Acid]
23 | 1610 | 468 | C[C@@]1(C(=O)O)CCCN(c2cccc(S(=O)(=O)Nc3ccc(C4CC4)c(-c4ccccc4C4CC4)n3)n2)C1 [Example 407, (R)-1-(6-(N-(5-cyclopropyl-6-(2-cyclopropylphenyl)pyridin-2-yl)sulfamoyl)pyridin-2-yl)-3-methylpiperidine-3-carboxylic Acid]
24 | 1520 | 334 | Cc1ccc(NS(=O)(=O)c2cccc(N3CCC[C@@](C)(C(=O)O)C3)n2)nc1-c1ccccc1C1CC1 [Example 406, (R)-1-(6-(N-(6-(2-cyclopropylphenyl)-5-methylpyridin-2-yl)sulfamoyl)pyridin-2-yl)-3-methylpiperidine-3-carboxylic Acid]
25 | 1390 | 400 | Cc1ccccc1-c1nc(NS(=O)(=O)c2cccc(N3CCC[C@@](C)(C(=O)O)C3)n2)ccc1C1CC1 [Example 411, (R)-1-(6-(N-(5-cyclopropyl-6-(o-tolyl)pyridin-2-yl)sulfamoyl)pyridin-2-yl)-3-methylpiperidine-3-carboxylic Acid]
26 | 796 | – | CCCc1ccccc1-c1nc(NS(=O)(=O)c2cccc(N3CCCC(C)(C(=O)O)C3)n2)ccc1C(F)(F)F (stereo not shown) [Example 401, 3-methyl-1-(6-(N-(6-(2-propylphenyl)-5-(trifluoromethyl)pyridin-2-yl)sulfamoyl)pyridin-2-yl)piperidine-3-carboxylic Acid]
27 | 757 | – | CCCc1ccccc1-c1nc(NS(=O)(=O)c2cccc(N3CCC[C@@](C)(C(=O)O)C3)n2)ccc1C(F)(F)F [Example 423, (R)-3-methyl-1-(6-(N-(6-(2-propylphenyl)-5-(trifluoromethyl)pyridin-2-yl)sulfamoyl)pyridin-2-yl)piperidine-3-carboxylic Acid]
